Entries after “also recorded” stand apart in the source; their conditions may differ.

Experimental findings from US20110110918A1, “ROLE OF (DE)ACETYLATION IN COUNTERACTING PROTEIN AGGREGATION” (Rijksuniversiteit Groningen, priority 2008, published 2011) are described below.

Format in all cases: cell-based, Human
The subject of one assay is HDQ119 aggregation. Description: Filter trap assay of HDQ119 aggregation in HEK-293 cells cotransfected with EYFP-HDQ119 and DnaJB6 or DnaJB8. The following applies: for ability of DnaJB8 and DnaJB6 to suppress HDQ119 aggregation in presence of HDAC inhibitor: HEK-293 expressing DnaJB6 or DnaJB8 (Tet on), Trichostatin A 100 and 500 nM, Tubacin 3 and 5 μM, Niltubacin 3 and 5 μM. The protocol:
Cell culture and transient infections. Flp-In T-Rex HEK293 cells (Human embryonic kidney 293) stably expressing the tetracycline (tet) repressor were obtained from Invitrogen. Cells were cultured in DMEM (Gibco) supplemented with 10% foetal bovine serum (Sigma) and 100 units/ml penicillin and 100 μg/ml streptomycin (Invitrogen). 5 μg/ml Blasticidine (Sigma) and 100 μg/ml of Zeocin (Invitrogen) were added to the cultures. Cultures were maintained at 37° C. and 5% CO2 in a humidified incubator. For transient transfections, cells were grown to 50-60% confluence in 35 mm-diameter dishes coated with 0.001% of poly-L-lysine (Sigma) and on coated coverslips for confocal microscopy analyses. Cells were transfected with a total of 1 μg of DNA using Lipofectamine (Gibco) according to the manufacturer instructions.
Plasmids. The construction of pHDQ119-EYFP driving the expression of a fragment of exon-1 of huntingtin fused to the enhanced yellow fluorescent protein was previously described (Rujano et al., 2006). The construction of the tetracycline inducible HSP overexpression plasmids is described by Hageman et al. (manuscript in preparation). Briefly, first the V5 sequence containing a Kozak initiation codon and lacking a stop codon was inserted in pcDNA5/FRT/TO by oligo cloning. Subsequently, the coding sequence of each gene was amplified and the PCR products where purified, cleaved with the respective enzymes and ligated in frame in the pcDNA5/FRT/TO-V5 vector cleaved with the same set of enzymes. Presence of the correct insert was verified using DNA sequencing. Expression of the proteins at the expected molecular mass was verified by Western Not analysis against the V5-tag.
(§1) HDAC inhibition. […] Cell extracts prepared 36 hours after treatment were processed for filter trap essays and western Notting as described before. Increase in acetylated tubulin and histones as detected by western Notting was used as test for functionality.
Cell extracts and sample preparation. 24 hours after transfection cells were recovered by trypsinization, pelleted and resuspended in 1 ml of PBS. The cell suspension was centrifuged at 6000 rpm for 5 min at RT and the pellet was resuspended in 75 μl of RIPA buffer containing 2% SDS supplemented with protease inhibitors and sonicated. Protein content was determined with the DC protein essay (Bio-RAD). Western Not samples were prepared at a final concentration of 1 μg/μl in SDS-PAGE loading buffer and heated for 5 min at 100° C. Filter trap samples were prepared at a final concentration of 100 ng/μl, 20 ng/μl and 4 ng/μl in FTA buffer (10 mM Tris-Cl pH 8.0, 150 mM NaCl and 50 mM dithiothreitol)+2% SDS and heated for 5 min at 100° C. Samples were used immediately or kept frozen at −20° C.
Filter trap assay. Filter trap assay was performed based on the protocol described by Carra et al. (2005). Briefly, 10, 2 and 0.4 μg of protein extracts were applied onto a 0.2 μm pore Cellulose Acetate membrane prewashed with FTA+0.1% SDS. Mild suction was applied and the membrane was washed 3 times with the same buffer. […] For quantitative analysis, relative intensity of the bands was measured using GelPro Analyzer 4.5 gel analyzer software.

The next assay deals with HDAC-6. The assay is described as follows: Western blot of acetylated tubulin as test for HDAC inhibitor functionality. The following applies: control cells or cells expressing DnaJB8. As for the experimental part: as §1
Western blot analysis. […] Proteins were transferred onto nitrocellulose membranes and probed with monoclonal anti-GFP antibody GL-8 (Clontech) at a 1:5000 dilution and monoclonal anti-V5 antibody (Invitrogen) at a 1:5000 dilution. GAPDH was used a loading control and was detected with a monoclonal antibody (RDI Research Diagnostics) at 1:1000 dilution. Blots were incubated with HRP-conjugated anti-mouse secondary antibody (Amersham) at 1:5000 dilution, and visualization was made using enhanced chemiluminescence and Hyperfilm (ECL, Amersham).

The subject of the next assay is DNAJB8. Description: Mass spectrometry of immunoprecipitated DNAJB8 from TSA-treated cells. The following applies: TSA-treated cells versus control sample, in-gel digestion. The protocol:
Immunoprecipitation. Cells from a 35 mm dish were washed twice with PBS and lysed in 500 μl RIPA (25 mM Tris-HCl pH 7.6, 150 mM NaCl, 1% NP-40, 1% sodium deoxycholate, 0.1% SDS). Lysis was completed by passing the extracts five times through a 21-gauge needle. Subsequently, cell extracts were centrifuged twice at 10,000 G for 10 minutes at 4° C. and the supernatant transferred. Lysates were cleared with agarose A/G beads for 1 hour at 4° C. in a rotator. In the mean time, 0.5 μg V5 anti-body was incubated with […] agarose A/G plus agarose beads (Santa Cruz Biotechnology) and 50 μl RIPA for 1 hour at 4° C. Thereafter, samples were centrifuged at 1000 g for 30 seconds and the supernatant was transferred to a new tube together with 50 μl of the pre-incubated antibody and incubated for 1 more hour in a rotator. Thereafter, the beads were washed twice with RIPA and twice with PBS. After the final wash, 30 μl of RIPA was added together with 30 μl Laemmli sample buffer and boiled for 5 minutes. 10 μl of the extract was loaded and subjected for Western blot analysis.
Mass Spectometry. […]
The digested material was analyzed by nanoLC-MS/MS on an Ultimate 3000 system (Dionex, Amsterdam, The Netherlands) connected on-line with a LTQ-Orbitrap-XL mass spectrometer (ThermoFisher Scientific, San Jose, Calif.). […]

Take `CC(/C=C/C(=O)NO)=C\[C@@H](C)C(=O)c1ccc(N(C)C)cc1` [TSA, Trichostatin A]: in the assay with HDQ119 aggregation (0.5 μM TSA), the “DnaJB8 and DnaJB6 activity on HDQ119 aggregation” value was “completely annihilated DnaJB8 and DnaJB6 activity”. The “ability of DnaJB8 and DnaJB6 to suppress HDQ119 aggregation in presence of HDAC inhibitor” value in the assay with HDQ119 aggregation is “but not after HDAC inhibition with TSA; also recorded: stronly reduced; also recorded: concentration dependent loss of the ability of DnaJB8 and DnaJB6 to reduce HQ119 aggregation”. Also, the “HDQ119 aggregation in cells transfected with the empty vector” value in the assay with HDQ119 aggregation (empty plasmid (FRT TO), HEK-293, different concentrations of TSA) was “slightly enhanced HDQ119 aggregation”. Also, the “tubulin acetylation (cellular content of acetylated tubulin)” value in the assay with HDAC-6 is “increases the cellular content of acytelated Tubulin; also recorded: equally effective in increasing tubulin acetylation”. Besides, the “acetylated DNAJB8 peptides (K61, K216, K223) detected by mass spectrometry” value in the assay with DNAJB8 is given as 3 peaks in the TSA-treated samples that were absent in the control sample.
`O=C(CCCCCCC(=O)Nc1ccc([C@H]2O[C@@H](CSc3nc(-c4ccccc4)c(-c4ccccc4)o3)C[C@@H](c3ccc(CO)cc3)O2)cc1)NO` [Tubacin]: the “ability of DnaJB8 and DnaJB6 to suppress HDQ119 aggregation in presence of HDAC inhibitor” value in the assay with HDQ119 aggregation is “did not result in inhibition of DnaJB8 and DnaJB6 activity”. The “tubulin acetylation (cellular content of acetylated tubulin)” value with HDAC-6 was “increases the cellular content of acytelated Tubulin; also recorded: equally effective in increasing tubulin acetylation”.

B1: wild type DnaJB8: member of the Hsp40 family, chaperone counteracting protein aggregation; V5-tagged, tet-inducible overexpression (protein, UniProt Q8NHS0 1-232, looked up)
DnaJ homolog subfamily B …: MANYYEVLGVQASASPEDIKKAYRKLALRWHPDKNPDNKEEAEKKFKLVSEAYEVLSDSKKRSLYDRAGCDSWRAGGGASTPYHSPFDTGYTFRNPEDIFREFFGGLDPFSFEFWDSPFNSDRGGRGHGLRGAFSAGFGEFPAFMEAFSSFNMLGCSGGSHTTFSSTSFGGSSSGSSGFKSVMSSTEMINGHKVTTKRIVENGQERVEVEEDGQLKSVTVNGKEQLKWMDSK
modifications: V5 tag
notes: member of the Hsp40 family, chaperone counteracting protein aggregation; V5-tagged, tet-inducible overexpression
On to B1, for which, in the assay on HDQ119 aggregation (Tet on, 24 h after cotransfection, filter trap 10, 2 and 0.4 ug protein/slot), the “suppression of poly-Q huntingtin (HDQ119) aggregation by overexpressed DnaJB8 variant” value was “substantially suppressed aggregation of poly-Q huntingtin”.
